Data as given in patent publication US5789431A, “Naphthoquinone antitumor compound and method” (The University of North Carolina at Chapel Hill, priority 1996, dated 1998).

Tests used:
DLD-1 = assay: in vitro colon cancer cell growth inhibition (NCI screen)
LXFL 529 = assay: in vitro non-small cell lung cancer cell growth inhibition (NCI screen)
HCT-15 = assay: in vitro colon cancer cell growth inhibition (NCI screen)
K-562 = assay: in vitro leukemia cell growth inhibition (NCI screen)
M19-MEL = assay: in vitro melanoma cell growth inhibition (NCI screen)
RXF-393 = assay: in vitro renal cancer cell growth inhibition (NCI screen)
SR = assay: in vitro leukemia cell growth inhibition (NCI screen)
HL-60(TB) = assay: as above
SK-MEL-5 = assay: in vitro melanoma cell growth inhibition (NCI screen)
NCI-H460 = assay: in vitro non-small cell lung cancer cell growth inhibition (NCI screen)
LOX1MVI = assay: in vitro melanoma cell growth inhibition (NCI screen)
UACC-62 = assay: as above
XF-498 = assay: in vitro CNS cancer cell growth inhibition (NCI screen)
COLO-205 = assay: in vitro colon cancer cell growth inhibition (NCI screen)
MOLT-4 = assay: in vitro leukemia cell growth inhibition (NCI screen)
SK-MEL-2 = assay: in vitro melanoma cell growth inhibition (NCI screen)
HCT-116 = assay: in vitro colon cancer cell growth inhibition (NCI screen)
OVCAR-3 = assay: in vitro ovarian cancer cell growth inhibition (NCI screen)
UO-31 = assay: in vitro renal cancer cell growth inhibition (NCI screen)
MALME-3M = assay: in vitro melanoma cell growth inhibition (NCI screen)
NCI-H522 = assay: in vitro non-small cell lung cancer cell growth inhibition (NCI screen)
SF-539 = assay: in vitro CNS cancer cell growth inhibition (NCI screen)
NCI-H23 = assay: in vitro non-small cell lung cancer cell growth inhibition (NCI screen)
UACC-257 = assay: in vitro melanoma cell growth inhibition (NCI screen)
HOP-92 = assay: in vitro non-small cell lung cancer cell growth inhibition (NCI screen)
CCRF-CEM = assay: in vitro leukemia cell growth inhibition (NCI screen)
HT 29 = assay: in vitro colon cancer cell growth inhibition (NCI screen)
M14 = assay: in vitro melanoma cell growth inhibition (NCI screen)
MCF7/ADR-RES = assay: in vitro breast cancer cell growth inhibition (NCI screen)
SW 620 = assay: in vitro colon cancer cell growth inhibition (NCI screen)
PC-3 = assay: in vitro prostate cancer cell growth inhibition (NCI screen)
T-47D = assay: in vitro breast cancer cell growth inhibition (NCI screen)
RPMI-8226 = assay: in vitro leukemia cell growth inhibition (NCI screen)
OVCAR-4 = assay: in vitro ovarian cancer cell growth inhibition (NCI screen); details: OVACR-4
MDA-MB-435 = assay: in vitro breast cancer cell growth inhibition (NCI screen)
SNB-75 = assay: in vitro CNS cancer cell growth inhibition (NCI screen)
OVCAR-8 = assay: in vitro ovarian cancer cell growth inhibition (NCI screen)
human tumor cell lines = format: cell-based; details: Homo sapiens; cancer cell panel, general / most cell lines; read-out: logGI50 values in the cancer cell line panel (converted)

| Structure (SMILES) | cytotoxicity log GI50 (DLD-1) | cytotoxicity log GI50 (HCT-15) | cytotoxicity log GI50 (K-562) | cytotoxicity log GI50 (M19-MEL) | cytotoxicity log GI50 (RXF-393) | cytotoxicity log GI50 (HL-60(TB)) | cytotoxicity log GI50 (SK-MEL-5) | cytotoxicity log GI50 (NCI-H460) | cytotoxicity log GI50 (LOX1MVI) | cytotoxicity log GI50 (UACC-62) | cytotoxicity log GI50 (COLO-205) | cytotoxicity log GI50 (SK-MEL-2) | cytotoxicity log GI50 (HCT-116) | cytotoxicity log GI50 (OVCAR-3) | cytotoxicity log GI50 (MALME-3M) | cytotoxicity log GI50 (NCI-H522) | cytotoxicity log GI50 (UACC-257) | cytotoxicity log GI50 (HOP-92) | cytotoxicity log GI50 (T-47D) | also measured |
| --- | --- | --- | --- | --- | --- | --- | --- | --- | --- | --- | --- | --- | --- | --- | --- | --- | --- | --- | --- | --- |
| CCC(C)(C)n1c(C)nc2c1C(=O)c1ccccc1C2=O [Compound 12] | -4.81 M | -4.64 M | -4.87 M | -4.80 M | -4.68 M | -5.12 M | -4.80 M | -4.91 M | -4.71 M | -4.87 M | -4.77 M | -4.73 M | -4.87 M | – | – | – | – | – | – | cytotoxicity log GI50 (LXFL 529): -4.86 M; cytotoxicity log GI50 (SR): -5.03 M; cytotoxicity log GI50 (XF-498): -4.77 M; cytotoxicity log GI50 (MOLT-4): -4.73 M |
| Cc1nc2c(n1CC(C)C)C(=O)c1ccccc1C2=O [Compound 7] | – | – | -4.52 M | -4.80 M | – | -4.64 M | -4.73 M | -4.63 M | – | -4.68 M | – | -4.59 M | -4.68 M | -4.60 M | -4.69 M | -4.58 M | -4.75 M | -4.99 M | – | cytotoxicity log GI50 (UO-31): -4.58 M; cytotoxicity log GI50 (SF-539): -4.61 M; cytotoxicity log GI50 (NCI-H23): -4.74 M |
| CCNC1=C(NC(=O)CC)C(=O)c2ccccc2C1=O [Compound 45] | – | -4.19 M | – | – | -4.32 M | – | -4.27 M | – | – | – | -4.33 M | – | -4.44 M | -4.49 M | -4.64 M | -4.34 M | -4.52 M | – | – | cytotoxicity log GI50 (CCRF-CEM): -4.25 M; cytotoxicity log GI50 (HT 29): -4.46 M; cytotoxicity log GI50 (M14): -4.50 M; cytotoxicity log GI50 (MCF7/ADR-RES): -4.23 M; cytotoxicity log GI50 (SW 620): -4.22 M; cytotoxicity log GI50 (PC-3): -4.37 M |
| COc1ccc(-n2c(CCC(=O)O)nc3c2C(=O)c2ccccc2C3=O)cc1 [Compound 62] | – | – | – | – | – | – | – | – | -4.55 M | – | – | – | – | – | – | -4.46 M | – | – | -4.48 M | – |
| O=C(O)CCc1nc2c(n1-c1ccccc1)C(=O)c1ccccc1C2=O [Compound 60] | – | – | – | – | – | – | – | – | – | – | – | – | -4.30 M | – | – | -4.42 M | – | -7.65 M | -4.19 M | – |
| CCC(C)NC1=C(NC(C)=O)C(=O)c2ccccc2C1=O (stereo not shown) [Compound 30] | -4.56 M | -4.34 M | -4.36 M | – | – | -4.76 M | – | – | -4.81 M | – | – | – | – | -4.39 M | – | – | – | – | – | cytotoxicity log GI50 (CCRF-CEM): -4.66 M; cytotoxicity log GI50 (RPMI-8226): -4.87 M; cytotoxicity log GI50 (SW 620): -4.65 M |
| CCn1c(-c2ccccc2)nc2c1C(=O)c1ccccc1C2=O [Compound 25] | – | – | – | – | -4.81 M | – | -4.95 M | – | – | – | -4.85 M | – | – | -5.23 M | -5.06 M | -4.82 M | -5.41 M | – | -5.65 M | cytotoxicity log GI50 (HT 29): -5.05 M; cytotoxicity log GI50 (OVCAR-4): -4.90 M; cytotoxicity log GI50 (MDA-MB-435): -4.80 M; cytotoxicity log GI50 (M14): -4.81 M; cytotoxicity log GI50 (MCF7/ADR-RES): -4.88 M; cytotoxicity log GI50 (SNB-75): -4.61 M; cytotoxicity log GI50 (OVCAR-8): -4.85 M; GI50 (human tumor cell lines): ~10 µM; cytotoxicity log GI50 (MOLT-4): -4.83 M; cytotoxicity log GI50 (PC-3): -4.99 M |
| CCC(CC)n1c(C)nc2c1C(=O)c1ccccc1C2=O [Compound 10] | -4.61 M | -5.04 M | -4.68 M | -4.83 M | – | -4.97 M | -4.80 M | -4.68 M | -4.71 M | -4.99 M | -4.57 M | -4.56 M | -4.71 M | -4.59 M | -4.58 M | – | -4.62 M | -4.65 M | – | cytotoxicity log GI50 (LXFL 529): -4.71 M; cytotoxicity log GI50 (UO-31): -4.71 M; cytotoxicity log GI50 (SR): -4.59 M; cytotoxicity log GI50 (SNB-75): -4.69 M; cytotoxicity log GI50 (NCI-H23): -4.67 M |
